Data from paper PMC4550851, “Potential analgesic effects of a novel N-acylethanolamine acid amidase inhibitor F96 through PPAR-α” (Scientific Reports, 2015).

Experiments:
Format in all cases: biochemical
[1] = biological target: T1, N-acylethanolamine acid amidase (NAAA) (Homo sapiens, UniProt Q02083); test: enzyme activity assay, IC50
T1 sequence (Q02083 29-125): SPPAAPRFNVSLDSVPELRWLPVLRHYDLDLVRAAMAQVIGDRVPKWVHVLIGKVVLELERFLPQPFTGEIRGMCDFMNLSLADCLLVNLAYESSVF
T1 sequence (Q02083 126-359): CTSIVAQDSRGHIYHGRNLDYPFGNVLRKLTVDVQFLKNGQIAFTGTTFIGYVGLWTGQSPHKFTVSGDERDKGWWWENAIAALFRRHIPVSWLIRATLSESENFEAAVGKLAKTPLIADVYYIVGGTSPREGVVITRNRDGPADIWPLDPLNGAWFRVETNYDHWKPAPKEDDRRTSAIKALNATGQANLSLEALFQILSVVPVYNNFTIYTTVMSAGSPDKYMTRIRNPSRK

[2] = biological target: T2, N-acylethanolamine acid amidase (NAAA) (Rattus norvegicus, UniProt Q5KTC7); test: enzyme activity assay with extracted recombinant rNAAA, heptadecenoylethanolamide substrate, concentration-response
T2 construct: extracted recombinant rat NAAA (rNAAA)
T2 sequence (Q5KTC7 34-130): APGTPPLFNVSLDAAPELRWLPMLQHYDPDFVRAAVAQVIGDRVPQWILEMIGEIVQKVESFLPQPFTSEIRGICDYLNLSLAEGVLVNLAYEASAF
T2 sequence (Q5KTC7 131-362): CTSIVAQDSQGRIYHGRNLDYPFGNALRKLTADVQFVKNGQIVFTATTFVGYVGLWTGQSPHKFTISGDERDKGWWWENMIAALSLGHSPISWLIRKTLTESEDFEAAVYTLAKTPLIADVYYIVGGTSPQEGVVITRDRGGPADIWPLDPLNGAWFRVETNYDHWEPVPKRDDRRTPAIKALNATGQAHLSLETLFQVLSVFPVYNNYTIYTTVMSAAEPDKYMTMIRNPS

[3] = biological target: T3, FAAH (Rattus norvegicus, UniProt P97612); test: enzyme activity assay with extracted recombinant rFAAH, anandamide substrate (selectivity counter-assay)
T3 construct: extracted recombinant rat FAAH (rFAAH)
T3 sequence (P97612 1-579): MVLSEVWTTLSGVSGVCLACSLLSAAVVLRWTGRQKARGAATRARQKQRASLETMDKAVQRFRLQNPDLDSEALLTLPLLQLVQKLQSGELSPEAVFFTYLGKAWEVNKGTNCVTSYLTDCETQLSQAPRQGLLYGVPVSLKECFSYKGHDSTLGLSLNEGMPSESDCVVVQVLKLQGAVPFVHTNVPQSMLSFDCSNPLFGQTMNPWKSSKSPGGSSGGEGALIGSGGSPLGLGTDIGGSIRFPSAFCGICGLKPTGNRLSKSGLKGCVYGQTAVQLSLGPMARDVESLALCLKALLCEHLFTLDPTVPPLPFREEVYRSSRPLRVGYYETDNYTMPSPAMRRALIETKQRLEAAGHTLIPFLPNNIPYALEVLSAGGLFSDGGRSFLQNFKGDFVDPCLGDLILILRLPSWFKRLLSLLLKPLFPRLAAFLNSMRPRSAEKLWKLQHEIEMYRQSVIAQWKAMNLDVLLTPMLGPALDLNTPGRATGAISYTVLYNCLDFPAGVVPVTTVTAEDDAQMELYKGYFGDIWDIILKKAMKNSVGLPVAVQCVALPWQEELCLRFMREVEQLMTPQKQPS

## O=C(CCCCCc1ccccc1)N1CCOC1=O [F96, 3-(6-phenylhexanoyl)oxazolidin-2-one]
[1]
  IC50: 269 ± 43.8 nM
[2]
  IC50: 269 ± 22.4 nM
[3]
  IC50: 42000 ± 1920 nM
